Consider two compounds from ChEMBL document CHEMBL4699460, “Integrating DNA-encoded chemical libraries with virtual combinatorial library screening: Optimizing a PARP10 inhibitor” (Bioorg Med Chem Lett, 2020).

Some results are limits rather than exact numbers.

Assay [1] has as its target T1, Protein mono-ADP-ribosyltransferase PARP15 (Homo sapiens) (UniProt Q460N3).
T1 sequence (whole entry): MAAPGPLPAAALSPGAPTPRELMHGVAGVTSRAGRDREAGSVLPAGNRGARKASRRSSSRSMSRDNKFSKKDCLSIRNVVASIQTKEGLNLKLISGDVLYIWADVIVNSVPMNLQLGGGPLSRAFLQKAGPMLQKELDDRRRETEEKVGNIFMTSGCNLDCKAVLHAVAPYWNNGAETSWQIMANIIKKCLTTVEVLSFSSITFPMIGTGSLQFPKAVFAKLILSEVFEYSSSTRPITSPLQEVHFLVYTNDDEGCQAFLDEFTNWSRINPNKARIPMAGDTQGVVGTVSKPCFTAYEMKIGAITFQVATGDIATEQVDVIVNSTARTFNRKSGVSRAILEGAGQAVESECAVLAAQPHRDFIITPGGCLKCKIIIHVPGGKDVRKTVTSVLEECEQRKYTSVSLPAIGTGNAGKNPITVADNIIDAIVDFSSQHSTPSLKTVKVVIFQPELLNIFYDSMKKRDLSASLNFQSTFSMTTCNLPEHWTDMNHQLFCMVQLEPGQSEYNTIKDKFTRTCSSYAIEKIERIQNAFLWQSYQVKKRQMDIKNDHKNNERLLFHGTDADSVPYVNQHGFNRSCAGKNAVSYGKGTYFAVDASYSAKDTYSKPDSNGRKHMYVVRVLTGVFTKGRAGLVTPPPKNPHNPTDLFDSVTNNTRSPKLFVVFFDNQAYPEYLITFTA
As to the kind of experiment: Inhibition of N-terminal GST-tagged human PARP15 (221 to 444 residues) expressed in Escherichia coli assessed as reduction in NAD+-dependent ADP ribosylation using histone as substrate at 10 uM incubated for 1 hr in presence of biotinylated NAD+ and activated DNA by chemiluminescence based microplate reader assay relative to control.

In assay [2] the target is T2, Poly [ADP-ribose] polymerase tankyrase-1 (Homo sapiens) (UniProt O95271).
T2 sequence (whole entry): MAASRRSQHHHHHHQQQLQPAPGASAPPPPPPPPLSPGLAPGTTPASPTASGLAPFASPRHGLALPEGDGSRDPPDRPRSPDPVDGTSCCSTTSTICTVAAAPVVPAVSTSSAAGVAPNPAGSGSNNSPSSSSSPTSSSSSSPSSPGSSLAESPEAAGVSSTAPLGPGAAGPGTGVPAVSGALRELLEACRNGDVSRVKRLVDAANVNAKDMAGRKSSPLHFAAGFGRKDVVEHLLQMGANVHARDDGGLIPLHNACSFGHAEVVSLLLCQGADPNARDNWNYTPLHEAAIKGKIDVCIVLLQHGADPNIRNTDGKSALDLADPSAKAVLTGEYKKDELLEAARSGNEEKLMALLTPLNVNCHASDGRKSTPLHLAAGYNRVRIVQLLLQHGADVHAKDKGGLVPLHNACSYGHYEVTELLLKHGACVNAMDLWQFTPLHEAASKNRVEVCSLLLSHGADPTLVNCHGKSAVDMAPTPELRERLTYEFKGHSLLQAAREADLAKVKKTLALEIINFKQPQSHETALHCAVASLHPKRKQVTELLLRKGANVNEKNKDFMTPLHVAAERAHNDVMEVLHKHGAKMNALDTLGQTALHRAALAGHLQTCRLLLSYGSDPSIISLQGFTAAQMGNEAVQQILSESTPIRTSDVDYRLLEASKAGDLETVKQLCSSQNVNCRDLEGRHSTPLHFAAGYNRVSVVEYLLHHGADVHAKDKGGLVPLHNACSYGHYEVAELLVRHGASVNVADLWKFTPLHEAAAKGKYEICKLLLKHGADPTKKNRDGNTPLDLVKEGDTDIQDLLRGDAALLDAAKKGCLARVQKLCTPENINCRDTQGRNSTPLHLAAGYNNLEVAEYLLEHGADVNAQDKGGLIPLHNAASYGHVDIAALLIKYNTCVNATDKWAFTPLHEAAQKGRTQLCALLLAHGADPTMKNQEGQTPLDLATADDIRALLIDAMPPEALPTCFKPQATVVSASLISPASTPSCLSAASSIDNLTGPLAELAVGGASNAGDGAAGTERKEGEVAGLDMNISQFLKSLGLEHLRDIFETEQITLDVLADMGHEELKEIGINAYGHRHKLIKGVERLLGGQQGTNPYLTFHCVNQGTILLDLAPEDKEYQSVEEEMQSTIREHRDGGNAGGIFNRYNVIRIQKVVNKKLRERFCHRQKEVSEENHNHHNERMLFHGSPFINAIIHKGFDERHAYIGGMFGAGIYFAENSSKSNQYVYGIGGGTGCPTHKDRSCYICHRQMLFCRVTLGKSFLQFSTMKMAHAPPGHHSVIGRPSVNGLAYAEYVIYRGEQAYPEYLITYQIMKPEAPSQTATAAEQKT
In words: Inhibition of N-terminal GST-tagged human TNKS1 (1001 to 1327 residues) expressed in baculovirus-infected Sf9 cells assessed as reduction in NAD+-dependent ADP ribosylation using histone as substrate at 10 uM incubated for 1 hr in presence of biotinylated NAD+ and activated DNA by chemiluminescence based microplate reader assay relative to control.

Assay [3] deals with T3, Protein mono-ADP-ribosyltransferase PARP3 (Homo sapiens) (UniProt Q9Y6F1).
T3 sequence (whole entry): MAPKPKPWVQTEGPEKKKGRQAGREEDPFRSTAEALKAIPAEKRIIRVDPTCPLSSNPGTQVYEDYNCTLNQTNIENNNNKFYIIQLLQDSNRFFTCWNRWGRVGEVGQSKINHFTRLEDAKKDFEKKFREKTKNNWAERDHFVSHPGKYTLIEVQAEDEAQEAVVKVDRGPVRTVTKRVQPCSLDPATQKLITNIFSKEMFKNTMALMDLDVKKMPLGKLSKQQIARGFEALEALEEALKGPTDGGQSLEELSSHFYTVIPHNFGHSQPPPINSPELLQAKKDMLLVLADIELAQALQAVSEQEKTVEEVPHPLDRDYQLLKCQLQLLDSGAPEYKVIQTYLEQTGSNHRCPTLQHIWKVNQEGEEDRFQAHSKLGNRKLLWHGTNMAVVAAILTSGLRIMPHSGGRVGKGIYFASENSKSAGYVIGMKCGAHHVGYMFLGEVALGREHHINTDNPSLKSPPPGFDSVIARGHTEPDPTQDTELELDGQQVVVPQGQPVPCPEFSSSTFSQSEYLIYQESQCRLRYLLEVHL
In words: Inhibition of N-terminal GST tagged full length human PARP3 expressed in baculovirus infected Sf9 cells assessed as reduction in NAD+-dependent ADP ribosylation using histone as substrate at 10 uM incubated for 1 hr in presence of biotinylated NAD+ and activated DNA by chemiluminescence based microplate reader assay relative to control.

Assay [4] concerns the target Poly [ADP-ribose] polymerase 1 (Homo sapiens) (UniProt P09874). In words: Inhibition of N-terminal GST tagged human PARP1 (2 to 1041 residues) expressed in baculovirus infected Sf9 cells assessed as reduction in NAD+-dependent ADP ribosylation using histone as substrate at 10 uM incubated for 1 hr in presence of biotinylated NAD+ and activated DNA by chemiluminescence based microplate reader assay relative to control.

Sequence of Poly [ADP-ribose] polymerase 1 (Homo sapiens) (P09874 whole entry, the tested form may be a part): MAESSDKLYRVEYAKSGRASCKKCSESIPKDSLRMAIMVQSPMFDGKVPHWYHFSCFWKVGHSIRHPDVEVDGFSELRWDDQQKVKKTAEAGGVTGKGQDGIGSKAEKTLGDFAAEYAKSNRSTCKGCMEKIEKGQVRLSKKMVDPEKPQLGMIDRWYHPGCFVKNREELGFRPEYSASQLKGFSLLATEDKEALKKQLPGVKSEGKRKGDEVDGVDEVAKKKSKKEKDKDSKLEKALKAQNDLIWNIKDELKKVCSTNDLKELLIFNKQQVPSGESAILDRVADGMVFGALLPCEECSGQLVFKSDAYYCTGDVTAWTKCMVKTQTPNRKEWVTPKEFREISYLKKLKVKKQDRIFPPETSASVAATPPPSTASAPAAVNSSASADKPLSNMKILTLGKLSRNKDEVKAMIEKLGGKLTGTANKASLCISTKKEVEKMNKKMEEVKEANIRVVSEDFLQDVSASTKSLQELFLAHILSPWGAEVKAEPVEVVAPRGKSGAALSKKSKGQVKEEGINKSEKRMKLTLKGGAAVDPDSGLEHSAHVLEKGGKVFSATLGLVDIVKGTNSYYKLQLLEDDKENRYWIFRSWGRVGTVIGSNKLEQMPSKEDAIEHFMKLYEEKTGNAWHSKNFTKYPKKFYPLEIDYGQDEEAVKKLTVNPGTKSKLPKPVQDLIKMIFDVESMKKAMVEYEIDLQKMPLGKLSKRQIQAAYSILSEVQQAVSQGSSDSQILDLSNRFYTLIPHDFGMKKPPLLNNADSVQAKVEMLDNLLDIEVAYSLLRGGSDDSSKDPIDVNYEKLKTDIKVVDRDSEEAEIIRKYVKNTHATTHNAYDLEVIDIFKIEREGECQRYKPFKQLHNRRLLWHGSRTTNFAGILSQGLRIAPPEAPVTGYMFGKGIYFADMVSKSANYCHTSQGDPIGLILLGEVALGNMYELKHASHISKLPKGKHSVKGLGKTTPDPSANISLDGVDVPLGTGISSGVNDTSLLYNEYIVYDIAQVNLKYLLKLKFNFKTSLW

For `CC1(CNC(=O)COc2cccc3c2CCCC3=O)CCN(C(=O)CCc2nc3ccccc3[nH]c2=O)CC1`, the inhibition (as a rule, the share of the control response that was lost under treatment) in assay [1] is 10%; in assay [2] it was above 50%; in assay [3], 22%; in assay [4], above 50%.

`CNC(=O)[C@H](CNC(=O)CCc1nc2ccccc2[nH]c1=O)NC(=O)c1ccc2c(c1)CCCC2=O`: the inhibition in assay [1], in assay [2], in assay [3] and in assay [4] was below 25% each time.
